# Laboratory results published in patent US20260007684A1, “AMIDE DERIVATIVES FOR INHIBITING NLRP3 AND USES THEREOF” (Ventus Therapeutics U.S., Inc., priority 2023, published 2026).
# Biological target: human NLRP3 (Homo sapiens (Human), UniProt Q96P20)
# Experiment: Scintillation Proximity (SPA) NLRP3 Assay: displacement of 3H-MCC950
# Assay type: binding
# Details: SPA IC50, displacement of 3H-MCC950
# Sequence of human NLRP3 (Q96P20 whole entry): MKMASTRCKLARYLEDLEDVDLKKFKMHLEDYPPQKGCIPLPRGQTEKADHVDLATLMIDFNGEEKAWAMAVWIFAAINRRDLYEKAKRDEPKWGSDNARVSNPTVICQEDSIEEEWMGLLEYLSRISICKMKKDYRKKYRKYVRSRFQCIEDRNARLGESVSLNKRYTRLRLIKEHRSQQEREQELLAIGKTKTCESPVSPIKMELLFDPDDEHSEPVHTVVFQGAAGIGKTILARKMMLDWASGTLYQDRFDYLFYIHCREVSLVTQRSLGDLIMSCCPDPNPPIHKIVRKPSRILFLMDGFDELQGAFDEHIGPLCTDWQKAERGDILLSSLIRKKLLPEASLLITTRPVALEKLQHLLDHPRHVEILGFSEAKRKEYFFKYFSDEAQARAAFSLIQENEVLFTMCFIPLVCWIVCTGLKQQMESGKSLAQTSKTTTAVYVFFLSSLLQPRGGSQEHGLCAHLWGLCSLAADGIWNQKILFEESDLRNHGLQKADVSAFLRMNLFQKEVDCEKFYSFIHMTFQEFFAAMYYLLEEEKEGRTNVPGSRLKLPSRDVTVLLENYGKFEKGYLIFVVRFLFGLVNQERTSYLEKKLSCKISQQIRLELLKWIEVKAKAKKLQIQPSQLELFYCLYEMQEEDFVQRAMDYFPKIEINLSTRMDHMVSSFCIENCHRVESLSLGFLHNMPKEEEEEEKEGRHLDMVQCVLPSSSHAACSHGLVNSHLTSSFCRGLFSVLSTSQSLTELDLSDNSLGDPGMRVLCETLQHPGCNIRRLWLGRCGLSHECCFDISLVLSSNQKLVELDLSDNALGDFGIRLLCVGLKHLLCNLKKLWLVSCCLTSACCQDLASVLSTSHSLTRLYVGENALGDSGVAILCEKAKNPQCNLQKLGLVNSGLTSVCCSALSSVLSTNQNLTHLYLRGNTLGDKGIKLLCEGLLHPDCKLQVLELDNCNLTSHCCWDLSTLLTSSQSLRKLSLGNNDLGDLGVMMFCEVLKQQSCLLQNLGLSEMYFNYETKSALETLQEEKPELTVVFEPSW
row,Structure (SMILES),IC50
1,"C[C@@H]1C[C@@H]2CC[C@H]([C@@H](NC(=O)C3(c4ccc(C(F)(F)F)cc4)CC3)C1)N2c1nnn[nH]1 [104F*, N-((1R,2S,4S,6S)-4-methyl-9-(1H-tetrazol-5-yl)-9-azabicyclo[4.2.1]nonan-2-yl)-1-(4-(trifluoromethyl)phenyl)cyclopropane-1-carboxamide]",10 to 50 µM
2,"C[C@@H]1C[C@@H]2CC[C@H]([C@H](NC(=O)C3(c4ccc(C(F)(F)F)cc4)CC3)C1)N2c1nnn[nH]1 [104E*, N-((1R,2R,4S,6S)-4-methyl-9-(1H-tetrazol-5-yl)-9-azabicyclo[4.2.1]nonan-2-yl)-1-(4-(trifluoromethyl)phenyl)cyclopropane-1-carboxamide]",10 to 50 µM
3,"O=C(NC1CCC[C@H]2CC[C@@H]1N2c1nnn[nH]1)C1(c2ccc(C3CC3)cc2O)CC1 (single isomer, unassigned) [93D*]",1 to 10 µM

# Same assay, conditions: displacement of 3H-MCC950; read-out: SPA IC50
row,Structure (SMILES),IC50
1,"C[C@H]1C[C@@H](NC(=O)C2(c3ccc(C(F)(F)F)cc3F)CC2)[C@@H]2CC[C@H]1N2c1nnn[nH]1 [84C*, 1-(2-fluoro-4-(trifluoromethyl)phenyl)-N-((1S,2R,4S,5R)-4-methy1-8-(1H-tetrazol-5-yl)-8-azabicyclo[3.2.1]octan-2-yl)cyclopropane-1-carboxamide]",> 100 µM
2,"C[C@H]1CCN(c2nnn[nH]2)C[C@@H](NC(=O)C2(c3ccc(OC(F)(F)F)c(F)c3O)CC2)C1 (single isomer, unassigned) [28D*, 1-(3-fluoro-2-hydroxy-4-(trifluoromethoxy)phenyl)-N-(5-methyl-1-(1H-tetrazol-5-yl)azepan-3-yl)cyclopropane-1-carboxamide]",1 to 10 µM
3,"C[C@@H]1CCN(c2nnn[nH]2)C[C@@H](NC(=O)C2(c3ccc(C(F)F)cc3)CC2)C1 (single isomer, unassigned) [5B*, 1-(4-(difluoromethyl)phenyl)-N-(5-methyl-1-(1H-tetrazol-5-yl)azepan-3-yl)cyclopropane-1-carboxamide]",10 to 50 µM
4,"C[C@@H]1CCN(c2nnn[nH]2)C[C@@H](NC(=O)C2(c3ccc(C4CC4)c(F)c3O)CC2)C1 (single isomer, unassigned) [32B*, 1-(4-cyclopropyl-3-fluoro-2-hydroxyphenyl)-N-(5-methyl-1-(1H-tetrazol-5-yl)azepan-3-yl)cyclopropane-1-carboxamide]",1 to 10 µM
5,"O=C(N[C@@H]1C[C@H](F)CN(c2nnn[nH]2)C1)C1(c2ccc(Cl)cc2)CC1 [Compound 44A, 1-(4-chlorophenyl)-N-[(3R,5S)-5-fluoro-1-(1H-tetrazol-5-yl)-3-piperidyl]cyclopropanecarboxamide]",> 100 µM
6,"Cc1ccc(C2(C(=O)N[C@@H]3C[C@@H](C)CCN(c4nnn[nH]4)C3)CC2)c(O)c1F (single isomer, unassigned) [74C*]",10 to 50 µM
7,"Cc1ccc(C2(C(=O)N[C@@H]3C[C@@H](C)CCN(c4nnn[nH]4)C3)CC2)cc1 (single isomer, unassigned) [71C*]",50 to 100 µM
8,"C[C@H]1CCN(c2nnn[nH]2)C[C@@H](NC(=O)C2(c3ccc(Cl)c(F)c3F)CC2)C1 (single isomer, unassigned) [4D*, 1-(4-chloro-2,3-difluorophenyl)-N-(5-methyl-1-(1H-tetrazol-5-yl)azepan-3-yl)cyclopropane-1-carboxamide]",1 to 10 µM
9,"C[C@@H]1C[C@H](NC(=O)C2(c3ccc(Cl)cc3)CC2)[C@H]2CC[C@@H]1N2c1nnn[nH]1 [80B*, 1-(4-chlorophenyl)-N-((1R,2S,4R,5S)-4-methyl-8-(1H-tetrazol-5-yl)-8-azabicyclo[3.2.1]octan-2-yl)cyclopropane-1-carboxamide]",10 to 50 µM
10,"C[C@H]1CCN(c2nnn[nH]2)C[C@@H](NC(=O)C2(c3ccc(C(F)(F)F)cc3)CC2)C1 (single isomer, unassigned) [61D*]",10 to 50 µM
11,"C[C@@H]1C[C@H](NC(=O)C2(c3ccc(C(F)(F)F)cc3)CC2)[C@H]2CC[C@@H]1N2c1nnn[nH]1 [79B*, N-((1R,2S,4R,5S)-4-methy1-8-(1H-tetrazol-5-yl)-8-azabicyclo[3.2.1]octan-2-yl)-1-(4-(trifluoromethyl)phenyl)cyclopropane-1-carboxamide]",10 to 50 µM
12,"Cc1ccc(C2(C(=O)N[C@H]3C[C@H](C)CCN(c4nnn[nH]4)C3)CC2)c(O)c1F (single isomer, unassigned) [22B*, 1-(3-fluoro-2-hydroxy-4-methylphenyl)-N-(5-methyl-1-(1H-tetrazol-5-yl)azepan-3-yl)cyclopropane-1-carboxamide]",1 to 10 µM
13,"Cc1c(Cl)ccc(C2(C(=O)N[C@H]3C[C@H](C)CCN(c4nnn[nH]4)C3)CC2)c1O (single isomer, unassigned) [21B*, 1-(4-chloro-2-hydroxy-3-methylphenyl)-N-(5-methyl-1-(1H-tetrazol-5-yl)azepan-3-yl)cyclopropane-1-carboxamide]",1 to 10 µM
14,"C[C@@H]1CC[C@@H](NC(=O)C2(c3ccc(C4CC4)cc3O)CC2)CN(c2nnn[nH]2)C1 (single isomer, unassigned) [91C*]",50 to 100 µM
15,"C[C@H]1CCN(c2nnn[nH]2)C[C@H](NC(=O)C2(c3ccc(OC(F)F)cc3)CC2)C1 (single isomer, unassigned) [58C*]",> 100 µM
16,"CC(C)c1ccc(C2(C(=O)N[C@@H]3C[C@@H](C)CCN(c4nnn[nH]4)C3)CC2)c(O)c1 (single isomer, unassigned) [27C*, 1-(2-hydroxy-4-isopropylphenyl)-N-(5-methyl-1-(1H-tetrazol-5-yl)azepan-3-yl)cyclopropane-1-carboxamide]",50 to 100 µM
17,"C[C@@H]1CCN(c2nnn[nH]2)C[C@@H]1NC(=O)C1(c2ccc(Cl)cc2)CC1 [Compound 49A, 1-(4-chlorophenyl)-N-[(3R,4R)-4-methy1-1-(1H-tetrazol-5-yl)-3-piperidyl]cyclopropanecarboxamide]",> 100 µM
18,"C[C@H]1CCN(c2nnn[nH]2)C[C@@H](NC(=O)C2(c3ccc(C(F)F)cc3O)CC2)C1 (single isomer, unassigned) [30D*, 1-(4-(difluoromethyl)-2-hydroxyphenyl)-N-(5-methyl-1-(1H-tetrazol-5-yl)azepan-3-yl)cyclopropane-1-carboxamide]",1 to 10 µM
19,"C[C@H]1C[C@@H](NC(=O)C2(c3ccc(C(F)(F)F)nc3O)CC2)CN(c2nnn[nH]2)C1 [Compound 24A, 1-(2-hydroxy-6-(trifluoromethyl)pyridin-3-yl)-N-((3R,5S)-5-methyl-1-(1H-tetrazol-5-yl)piperidin-3-yl)cyclopropane-1-carboxamide]",1 to 10 µM
20,"C[C@@H]1CC[C@H](NC(=O)C2(c3ccc(Cl)cc3)CC2)CN(c2nnn[nH]2)C1 (single isomer, unassigned) [36D*, 1-(4-chlorophenyl)-N-(6-methyl-1-(1H-tetrazol-5-yl)azepan-3-yl)cyclopropane-1-carboxamide]",> 100 µM
21,"CC(C)c1ccc(C2(C(=O)N[C@H]3C[C@@H](C)CCN(c4nnn[nH]4)C3)CC2)c(O)c1 (single isomer, unassigned) [27D*, 1-(2-hydroxy-4-isopropylphenyl)-N-(5-methyl-1-(1H-tetrazol-5-yl)azepan-3-yl)cyclopropane-1-carboxamide]",1 to 10 µM
22,"C[C@@H]1CCN(c2nnn[nH]2)C[C@@H](NC(=O)C2(c3ccc(Cl)cc3Cl)CC2)C1 (single isomer, unassigned) [55B*]",10 to 50 µM
23,"C[C@H]1CCN(c2nnn[nH]2)C[C@@H](NC(=O)C2(c3ccc(C(F)(F)F)c(F)c3)CC2)C1 (single isomer, unassigned) [66D*]",10 to 50 µM
